# Data as given in ChEMBL document CHEMBL1201862, “PubChem BioAssay data set” (2004).
# Activity calls are given as the source filed them.
# Legend:
# [1] = antiviral protection against BTV-induced cell death – arbovirus, BSR cells, confirmation (AID 1250); assay type: functional;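 further: protection from viral cytopathic effect measured as cell viability by ATP luminescence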
# [2] = M. tuberculosis H37Rv growth inhibitors, H37Rv strain (AID 1626); assay type: functional
# Aspartyl aminopeptidase = Aspartyl aminopeptidase (Plasmodium falciparum 3D7, UniProt Q8I2J3); experiment: Counterscreen for inhibitors of M1 and M17 aminopeptidases: QFRET-based biochemical high throughput dose response assay for inhibitors of the Plasmodium falciparum M18 Aspartyl Aminopeptidase (PFM18AAP). [Related PubChem assays: 1619 (Screening assay (M17LAP inhibitors).), 1445 (Screening assay (M1AAP inhibitors).)]
# Leucine aminopeptidase = biological target: T1, Leucine aminopeptidase (Plasmodium falciparum 3D7, UniProt Q8IL11); experiment: P. falciparum M17LAP inhibitors, primary screen, biochemical, fluorogenic H-Leu-NHMec substrate, 1536-well (AID 1619); assay type: functional
# T1 sequence (Q8IL11 whole entry): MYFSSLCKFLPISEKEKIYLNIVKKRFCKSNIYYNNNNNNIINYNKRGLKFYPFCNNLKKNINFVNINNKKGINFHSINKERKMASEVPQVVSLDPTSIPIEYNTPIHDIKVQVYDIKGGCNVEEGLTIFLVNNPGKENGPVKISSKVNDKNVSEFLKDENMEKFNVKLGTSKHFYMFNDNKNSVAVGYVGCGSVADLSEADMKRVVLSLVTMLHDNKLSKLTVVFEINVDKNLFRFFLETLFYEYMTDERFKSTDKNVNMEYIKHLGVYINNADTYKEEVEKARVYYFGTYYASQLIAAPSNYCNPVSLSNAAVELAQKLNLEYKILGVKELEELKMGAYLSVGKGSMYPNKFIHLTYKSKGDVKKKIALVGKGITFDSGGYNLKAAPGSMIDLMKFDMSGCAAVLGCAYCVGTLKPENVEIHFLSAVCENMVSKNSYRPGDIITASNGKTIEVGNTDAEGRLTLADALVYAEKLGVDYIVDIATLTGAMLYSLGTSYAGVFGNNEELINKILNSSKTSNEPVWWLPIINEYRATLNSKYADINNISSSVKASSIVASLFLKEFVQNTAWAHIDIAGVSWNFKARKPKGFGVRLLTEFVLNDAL
# Procathepsin L = Procathepsin L (Homo sapiens, UniProt P07711); experiment: CTSL1 protease inhibition – biochemical, QFRET, 1536-well, counter-screen for M1/M17 aminopeptidase inhibitor project, dose response (AID 2214)
# Protein skinhead-1 = biological target: T2, Protein skinhead-1 (Caenorhabditis elegans, UniProt P34707); assay type: functional
# T2 sequence (P34707 whole entry): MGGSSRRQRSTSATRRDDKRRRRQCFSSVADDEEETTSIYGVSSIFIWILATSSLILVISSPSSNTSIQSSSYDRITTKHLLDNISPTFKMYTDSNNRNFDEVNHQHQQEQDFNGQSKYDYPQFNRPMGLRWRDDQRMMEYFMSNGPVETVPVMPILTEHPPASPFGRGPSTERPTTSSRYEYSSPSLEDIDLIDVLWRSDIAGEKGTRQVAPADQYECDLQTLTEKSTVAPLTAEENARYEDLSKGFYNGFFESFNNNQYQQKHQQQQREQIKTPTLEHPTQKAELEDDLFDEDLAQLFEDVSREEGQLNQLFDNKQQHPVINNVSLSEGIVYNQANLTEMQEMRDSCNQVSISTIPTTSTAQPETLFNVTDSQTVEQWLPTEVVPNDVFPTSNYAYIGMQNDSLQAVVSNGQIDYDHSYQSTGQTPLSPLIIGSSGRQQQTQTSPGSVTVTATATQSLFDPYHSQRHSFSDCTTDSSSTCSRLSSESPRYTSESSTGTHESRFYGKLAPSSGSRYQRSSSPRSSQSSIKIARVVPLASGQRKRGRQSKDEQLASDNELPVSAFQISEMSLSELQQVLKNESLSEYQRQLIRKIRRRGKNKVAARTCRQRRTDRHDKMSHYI
# [3] = biological target: Neuropeptide Y receptor type 1 (Homo sapiens, UniProt P25929); assay type: functional;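 further: HEK293 cells with a CNG channel challenged with NPY then isoproterenol; potency as antagonist that reverses NPY suppression of cAMP signal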
# [4] = biological target: Neuropeptide Y receptor type 2 (Homo sapiens, UniProt P49146); assay type: functional, cell-based;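 further: HEK293 cells expressing the receptor and a CNG channel; stimulus was NPY near EC95 followed by isoproterenol to raise cAMP; antagonist potency measured as restoring cAMP signal that NPY suppresses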
# Chain of Neuropeptide Y receptor type 2 (P49146 whole entry): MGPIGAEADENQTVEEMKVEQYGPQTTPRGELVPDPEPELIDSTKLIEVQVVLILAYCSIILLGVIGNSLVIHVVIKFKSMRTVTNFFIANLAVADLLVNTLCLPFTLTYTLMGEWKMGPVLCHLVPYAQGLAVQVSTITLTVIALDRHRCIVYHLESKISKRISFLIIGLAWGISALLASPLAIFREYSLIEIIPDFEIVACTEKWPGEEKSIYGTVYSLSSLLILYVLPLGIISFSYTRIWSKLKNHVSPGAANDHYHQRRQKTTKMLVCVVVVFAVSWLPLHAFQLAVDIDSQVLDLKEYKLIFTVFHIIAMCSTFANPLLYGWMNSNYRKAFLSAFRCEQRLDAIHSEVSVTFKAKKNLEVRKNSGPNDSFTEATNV
# Chain of Procathepsin L (P07711 whole entry): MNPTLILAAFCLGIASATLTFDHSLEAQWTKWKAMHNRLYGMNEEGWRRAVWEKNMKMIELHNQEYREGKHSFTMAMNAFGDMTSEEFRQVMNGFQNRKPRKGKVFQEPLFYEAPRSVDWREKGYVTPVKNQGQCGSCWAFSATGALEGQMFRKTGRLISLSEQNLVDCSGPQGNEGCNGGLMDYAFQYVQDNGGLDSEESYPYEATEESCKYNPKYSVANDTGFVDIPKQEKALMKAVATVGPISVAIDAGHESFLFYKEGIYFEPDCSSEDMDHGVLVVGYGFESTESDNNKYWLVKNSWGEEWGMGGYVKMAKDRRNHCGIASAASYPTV
# Chain of Aspartyl aminopeptidase (Q8I2J3 whole entry): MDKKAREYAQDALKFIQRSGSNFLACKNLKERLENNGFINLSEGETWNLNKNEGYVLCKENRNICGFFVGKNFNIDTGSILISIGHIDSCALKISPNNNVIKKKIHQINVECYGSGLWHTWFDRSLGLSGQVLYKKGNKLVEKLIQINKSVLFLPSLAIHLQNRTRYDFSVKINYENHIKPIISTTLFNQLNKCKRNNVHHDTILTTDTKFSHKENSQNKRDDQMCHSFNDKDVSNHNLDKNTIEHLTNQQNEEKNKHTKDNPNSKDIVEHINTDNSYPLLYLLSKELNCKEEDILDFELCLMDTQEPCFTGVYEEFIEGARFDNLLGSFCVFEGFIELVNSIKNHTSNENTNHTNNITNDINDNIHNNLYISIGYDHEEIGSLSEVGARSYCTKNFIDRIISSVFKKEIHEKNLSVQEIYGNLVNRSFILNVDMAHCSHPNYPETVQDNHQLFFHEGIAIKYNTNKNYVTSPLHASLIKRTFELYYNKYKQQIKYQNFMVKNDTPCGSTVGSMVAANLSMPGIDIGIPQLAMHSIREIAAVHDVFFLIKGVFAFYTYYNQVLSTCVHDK
# Chain of Neuropeptide Y receptor type 1 (P25929 whole entry): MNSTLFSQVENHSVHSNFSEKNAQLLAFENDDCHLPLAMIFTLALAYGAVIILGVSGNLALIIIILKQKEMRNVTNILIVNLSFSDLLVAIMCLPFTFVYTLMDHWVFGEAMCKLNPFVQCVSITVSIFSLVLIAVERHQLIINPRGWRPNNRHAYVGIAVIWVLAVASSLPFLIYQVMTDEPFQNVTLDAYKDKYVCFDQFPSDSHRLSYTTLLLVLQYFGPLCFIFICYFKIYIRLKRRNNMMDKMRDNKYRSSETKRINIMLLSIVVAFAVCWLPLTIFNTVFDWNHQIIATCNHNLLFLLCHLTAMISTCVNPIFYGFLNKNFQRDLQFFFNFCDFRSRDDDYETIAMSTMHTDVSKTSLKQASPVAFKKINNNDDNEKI
structure (smiles),measurement,setting,value
CC1CCc2c(sc(NC(=O)c3ccccc3C(=O)O)c2C#N)C1 (stereo not drawn),IC50,[1],24 µM (active)
Cn1nc(C(F)(F)F)c(-c2ccc(Br)cc2)c1NC(=O)c1cccnc1,IC50,[2],> 100 µM (active)
CCOc1ccc(NC(=O)Nc2ccc3nccnc3c2)cc1,IC50,Aspartyl aminopeptidase,> 73.5 µM (not active)
same,IC50,Leucine aminopeptidase,5.45 µM (active)
same,IC50,Procathepsin L,> 59.6 µM (not active)
Clc1ccc(-c2nnn(Cc3nc4ccccc4s3)n2)cc1,IC50,Protein skinhead-1,> 100 µM (inactive)
same,IC50,[3],13.4 µM (not active)
same,IC50,[4],15.1 µM (not active)
